Measured values as given in ChEMBL document CHEMBL1201861, “Genomics of Drug Sensitity in Cancer screening data, Wellcome Trust Sanger Institute”.
pIC50: −log10 of the molar value.

Tests used:
Assay in all cases: cells
[1] = tested on: COLO-824; format: functional, cell-based, Homo sapiens; settings: Homo sapiens, COLO-824
Description: SANGER: Inhibition of human COLO-824 cell growth in a cell viability assay.

[2] = tested on: D-263MG; format: functional, cell-based, Homo sapiens; settings: Homo sapiens, D-263MG
Description: SANGER: Inhibition of human D-263MG cell growth in a cell viability assay.

[3] = tested on: ES1; format: functional, cell-based, Homo sapiens; settings: Homo sapiens, ES1;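 note: growth inhibition of ES1 cells, read out with a cell viability assay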
Description: SANGER: Inhibition of human ES1 cell growth in a cell viability assay.

[4] = tested on: ES5; format: functional, cell-based, Homo sapiens; settings: Homo sapiens, ES5;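 note: growth inhibition of human ES5 cells, read out by a cell viability assay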
[5] = tested on: EW-11; format: functional, cell-based, Homo sapiens; settings: Homo sapiens, EW-11;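 note: growth inhibition of human EW-11 cells, measured with a cell viability assay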
Description: SANGER: Inhibition of human EW-11 cell growth in a cell viability assay.

[6] = tested on: EOL1; format: functional, cell-based; settings: Homo sapiens;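 note: growth inhibition of EoL-1 cells, read out by a cell viability assay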
Description: SANGER: Inhibition of human EoL-1-cell cell growth in a cell viability assay.

[7] = tested on: GI-1; format: functional, cell-based, Homo sapiens; settings: Homo sapiens, GI-1;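 note: growth inhibition of human GI-1 cells, measured with a cell viability readout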
Description: SANGER: Inhibition of human GI-1 cell growth in a cell viability assay.

[8] = tested on: GI-ME-N; format: functional, cell-based, Homo sapiens; settings: Homo sapiens, GI-ME-N;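 note: growth inhibition of human GI-ME-N cells, read out with a cell viability assay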
Description: SANGER: Inhibition of human GI-ME-N cell growth in a cell viability assay.

[9] = tested on: HAL-01; format: functional, cell-based; settings: Homo sapiens;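 note: growth inhibition of human HAL-01 cells, read out with a cell viability assay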
Description: SANGER: Inhibition of human HAL-01 cell growth in a cell viability assay.

[10] = tested on: HC-1; format: functional, cell-based; settings: Homo sapiens;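 note: growth inhibition of HC-1 cells measured by a cell viability assay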
Description: SANGER: Inhibition of human HC-1 cell growth in a cell viability assay.

[11] = tested on: HT; format: functional, cell-based; settings: Homo sapiens
Description: SANGER: Inhibition of human HT cell growth in a cell viability assay.

[12] = tested on: HuTu80; format: functional, cell-based, Homo sapiens, HUTU-80; settings: Homo sapiens, HuTu80;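 note: growth inhibition of HuTu80 human cells, determined with a cell viability readout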
Description: SANGER: Inhibition of human HUTU-80 cell growth in a cell viability assay.

[13] = tested on: KARPAS-299; format: functional, cell-based; settings: Homo sapiens
Description: SANGER: Inhibition of human KARPAS-299 cell growth in a cell viability assay.

[14] = tested on: KINGS-1; format: functional, cell-based, Homo sapiens; settings: Homo sapiens, KINGS-1;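 note: cell viability assay measuring suppression of KINGS-1 cell growth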
Description: SANGER: Inhibition of human KINGS-1 cell growth in a cell viability assay.

[15] = tested on: KNS-42; format: functional, cell-based, Homo sapiens; settings: Homo sapiens, KNS-42;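 note: growth inhibition of KNS-42 cells, read out with a cell viability assay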
Description: SANGER: Inhibition of human KNS-42 cell growth in a cell viability assay.

[16] = tested on: KP-N-YS; format: functional, cell-based; settings: Homo sapiens;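 note: cell viability assay measuring inhibition of cell line growth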
Description: SANGER: Inhibition of human KP-N-YS cell growth in a cell viability assay.

[17] = tested on: LB2518-MEL; format: functional, cell-based, Homo sapiens; settings: Homo sapiens, LB2518-MEL;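 note: growth inhibition of human LB2518-MEL cells, measured with a cell viability assay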
Description: SANGER: Inhibition of human LB2518-MEL cell growth in a cell viability assay.

[18] = tested on: LU-134-A; format: functional, cell-based; settings: Homo sapiens
Description: SANGER: Inhibition of human LU-134-A cell growth in a cell viability assay.

[19] = tested on: LU-139; format: functional, cell-based; settings: Homo sapiens
Description: SANGER: Inhibition of human LU-139 cell growth in a cell viability assay.

[20] = tested on: MN-60; format: functional, cell-based; settings: Homo sapiens;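 note: growth inhibition of the MN-60 cell line, determined with a cell viability assay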
Description: SANGER: Inhibition of human MN-60 cell growth in a cell viability assay.

[21] = tested on: NCI-H1770; format: functional, cell-based; settings: Homo sapiens;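 note: growth inhibition of NCI-H1770 cells determined with a viability readout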
Description: SANGER: Inhibition of human NCI-H1770 cell growth in a cell viability assay.

[22] = tested on: NCI-H209; format: functional, cell-based; settings: Homo sapiens;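 note: growth inhibition of human NCI-H209 cells, measured by a cell viability assay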
Description: SANGER: Inhibition of human NCI-H209 cell growth in a cell viability assay.

[23] = tested on: NCI-H2126; format: functional, cell-based, Homo sapiens; settings: Homo sapiens, NCI-H2126;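 note: growth inhibition of the cancer cell line, determined with a cell viability readout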
Description: SANGER: Inhibition of human NCI-H2126 cell growth in a cell viability assay.

[24] = tested on: NCI-H446; format: functional, cell-based; settings: Homo sapiens;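 note: growth inhibition of NCI-H446 cells determined by a cell viability assay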
Description: SANGER: Inhibition of human NCI-H446 cell growth in a cell viability assay.

[25] = tested on: SNU1; format: functional, cell-based; settings: Homo sapiens;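 note: growth inhibition of human NCI-SNU-1 cells, measured with a cell viability assay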
Description: SANGER: Inhibition of human NCI-SNU-1 cell growth in a cell viability assay.

[26] = tested on: OCUB-M; format: functional, cell-based, Homo sapiens; settings: Homo sapiens, OCUB-M;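 note: growth inhibition of the cancer cell line, read out through a cell viability assay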
Description: SANGER: Inhibition of human OCUB-M cell growth in a cell viability assay.

[27] = tested on: SK-N-FI; format: functional, cell-based, Homo sapiens; settings: Homo sapiens, SK-N-FI;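 note: cell viability assay measuring growth inhibition of human SK-N-FI cells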
Description: SANGER: Inhibition of human SK-N-FI cell growth in a cell viability assay.

[28] = tested on: SK-NEP-1; format: functional, cell-based; settings: Homo sapiens;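 note: growth inhibition of human SK-NEP-1 cells, read out by a cell viability assay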
Description: SANGER: Inhibition of human SK-NEP-1 cell growth in a cell viability assay.

[29] = tested on: A253 cell line; format: functional, cell-based, Homo sapiens; settings: Homo sapiens, A253;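 note: growth inhibition of A253 cells, read out with a cell viability assay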
Description: SANGER: Inhibition of human A253 cell growth in a cell viability assay.

[30] = tested on: TE-10; format: functional, cell-based, Homo sapiens; settings: Homo sapiens, TE-10;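 note: growth inhibition of TE-10 cells, measured by a cell viability assay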
Description: SANGER: Inhibition of human TE-10 cell growth in a cell viability assay.

[31] = tested on: KURAMOCHI; format: functional, cell-based; settings: Homo sapiens;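 note: growth inhibition of KURAMOCHI cells, read out with a cell viability assay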
Description: SANGER: Inhibition of human KURAMOCHI cell growth in a cell viability assay.

Row | Structure (SMILES) | pIC50 [1] | pIC50 [2] | pIC50 [3] | pIC50 [4] | pIC50 [5] | pIC50 [6] | pIC50 [7] | pIC50 [8] | pIC50 [9] | pIC50 [10] | pIC50 [11] | pIC50 [12] | pIC50 [13] | pIC50 [14] | pIC50 [15] | pIC50 [16] | pIC50 [17] | pIC50 [18] | pIC50 [19] | pIC50 [20] | also measured
1 | CC1=C2C[C@H]3[C@@H](CC=C4C[C@@H](O)CC[C@@]43C)[C@@H]2CC[C@]12O[C@@H]1C[C@H](C)CN[C@H]1[C@H]2C [CYCLOPAMINE] | < 4.80 | < 4.80 | < 4.80 | < 4.80 | < 4.80 | < 4.80 | < 4.80 | < 4.80 | < 4.80 | < 4.80 | < 4.80 | < 4.80 | < 4.80 | < 4.80 | < 4.80 | < 4.80 | < 4.80 | < 4.80 | < 4.80 | < 4.80 | pIC50 [21]: < 4.80; pIC50 [22]: < 4.80; pIC50 [23]: < 4.80; pIC50 [24]: < 4.80; pIC50 [25]: < 4.80; pIC50 [26]: < 4.80; pIC50 [27]: < 4.80; pIC50 [28]: < 4.80; pIC50 [29]: < 4.80; pIC50 [30]: < 4.80
2 | CNC(=O)c1cc(Oc2ccc(NC(=O)Nc3ccc(Cl)c(C(F)(F)F)c3)cc2)ccn1 [SORAFENIB] | < 5.40 | < 5.40 | < 5.40 | < 5.40 | < 5.40 | < 5.40 | < 5.40 | < 5.40 | < 5.40 | < 5.40 | < 5.40 | < 5.40 | < 5.40 | < 5.40 | < 5.40 | < 5.40 | 5.92 | < 5.40 | < 5.40 | < 5.40 | pIC50 [31]: < 5.40; pIC50 [21]: < 5.40; pIC50 [22]: < 5.40; pIC50 [23]: < 5.40; pIC50 [24]: < 5.40; pIC50 [25]: 5.64; pIC50 [26]: < 5.40; pIC50 [27]: < 5.40; pIC50 [28]: < 5.40; pIC50 [29]: < 5.40; pIC50 [30]: < 5.40
3 | Cc1cc(Nc2cc(N3CCN(C)CC3)nc(Sc3ccc(NC(=O)C4CC4)cc3)n2)n[nH]1 [TOZASERTIB] | < 5.70 | < 5.70 | < 5.70 | < 5.70 | < 5.70 | 6.48 | < 5.70 | < 5.70 | 5.93 | < 5.70 | < 5.70 | 7.28 | < 5.70 | < 5.70 | < 5.70 | 6.26 | < 5.70 | < 5.70 | < 5.70 | < 5.70 | pIC50 [31]: 5.75; pIC50 [21]: < 5.70; pIC50 [22]: < 5.70; pIC50 [23]: < 5.70; pIC50 [24]: < 5.70; pIC50 [25]: < 5.70; pIC50 [26]: 6.77; pIC50 [27]: < 5.70; pIC50 [28]: 5.92; pIC50 [29]: < 5.70; pIC50 [30]: 5.95
